Results: patent US12461089B2, “Olfactory receptor involved in the perception of musk fragrance and the use thereof” (ChemoSensoryX Biosciences SA, priority 2017, dated 2025)
Positions count from the first letter of the chain named. Like-named read-outs stand apart in the source and are kept apart here.

How the values were obtained:
Type in all cases: cell-based
OR5A2_variant 1 = molecular target: T1, OR5A2_variant 1 (Homo sapiens, UniProt Q8NGI9); experiment: Luciferase reporter concentration-response analysis on OR5A2_variant 1; details: for activation of OR5A2 (OR5A2_variant 1), concentration-response: CRE-luciferase, semi-logarithmic serial dilutions, empty vector pEFIBRHO as control
T1 construct: expressed in transfected cells; host or cells: HEK293T-RTP1A1/RTP2
T1 sequence (Q8NGI9 1-324): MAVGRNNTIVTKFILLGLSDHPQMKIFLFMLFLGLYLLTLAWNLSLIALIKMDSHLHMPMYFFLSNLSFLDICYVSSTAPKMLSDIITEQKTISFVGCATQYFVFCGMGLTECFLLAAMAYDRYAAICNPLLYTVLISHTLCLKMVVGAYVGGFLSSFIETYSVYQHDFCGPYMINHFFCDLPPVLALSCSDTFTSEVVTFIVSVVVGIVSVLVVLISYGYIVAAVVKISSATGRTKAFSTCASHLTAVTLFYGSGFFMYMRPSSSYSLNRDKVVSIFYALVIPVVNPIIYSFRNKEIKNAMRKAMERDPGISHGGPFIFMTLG

OR5A2_variant 2 = molecular target: T2, OR5A2_variant 2 (Homo sapiens, UniProt Q8NGI9, P172L); experiment: Luciferase reporter concentration-response analysis on haplotype OR5A2_variant 2 (P172L); details: CRE-luciferase; empty vector pEFIBRHO as control
T2 construct: (P172L, OR5A2_variant 2); expressed in transfected cells; host or cells: HEK293T-RTP1A1/RTP2
T2 sequence (Q8NGI9 1-324 P172L): T1 sequence (Q8NGI9 1-324) with P172L
Method: HEK293T-RTP1A1/RTP2 cells were maintained in minimal essential medium (EMEM, Lonza) containing 10% fetal bovine serum (M10). These cells were generated by transfecting HEK293T with an expression vector containing the sequences of the chaperone proteins RTP1A1 and RTP2 and a resistance gene to puromycin, using Lipofectamine 2000.
Odorant molecules were diluted at a concentration of 1 mole/liter (M) into dimethyl sulfoxide (DMSO) to generate stock solutions.
For concentration-response analysis, serial dilutions of the tested molecules were prepared from stock solutions in EMEM plated into 96-well plates.
For the initial deorphanisation screening and dose-response analysis, a Luciferase-based gene reporter assay (Promega, Leiden, The Nederlands) was used. Briefly, cells were platted on Poly-D-lysine-coated 96-well and transfected with a plasmid containing the CRE-luciferase and a plasmid containing the olfactory receptor. Sixteen hours after transfection, the culture medium was replaced by serum-free EMEM containing the tested compounds at a determined concentration. After four hours of incubation at 37° C. degree, cells were lysed and processed for luminescence measurement. Luminescene emission was recorded. Results were expressed as luciferase activity (Relative […] Unit (RLU)) or as percentage of the response induced by 10 μM of the adenylate cyclase activator Forskolin. An empty plasmid is used as negative control.
OR genes are highly variable, with many alleles resulting in differences in smell perception from person to person. These differences can be attributed to genetic variations like, for example, nucleotide polymorphisms. […] Amino acids alignment of the 2 haplotypes are represented in FIG. 4.
To test if the substitution could impact the musk sensitivity, luciferase assays were performed as described previously after transfection of both OR5A2 variants. Cells were treated with semi-logarithmic serial dilutions of musk compounds from the four structurally different groups described earlier. In each experiment, an empty vector was used as negative control (pEFIBRHO).

OR5AN1 = molecular target: T3, OR5AN1 (Homo sapiens, UniProt Q8NGI8, E89G); experiment: Luciferase reporter concentration-response analysis on OR5AN1
T3 construct: expressed in transfected cells; host or cells: HEK293T-RTP1A1/RTP2
T3 sequence (Q8NGI8 1-311 E89G): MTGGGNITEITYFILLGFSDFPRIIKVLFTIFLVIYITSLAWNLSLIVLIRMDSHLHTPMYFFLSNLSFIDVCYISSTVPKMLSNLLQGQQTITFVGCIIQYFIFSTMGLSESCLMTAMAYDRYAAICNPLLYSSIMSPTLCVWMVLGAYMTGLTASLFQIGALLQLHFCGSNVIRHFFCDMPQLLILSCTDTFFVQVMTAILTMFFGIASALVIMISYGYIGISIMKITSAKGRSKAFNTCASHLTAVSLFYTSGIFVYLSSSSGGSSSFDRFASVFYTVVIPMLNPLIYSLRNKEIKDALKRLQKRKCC

[1] = concentration-response analysis, luciferase reporter, values given as negative (log) numbers, read-out: calculated EC50, OR5A2 (converted)
[2] = concentration-response analysis, luciferase reporter, values given as negative (log) numbers, Non Active = no activation after testing, read-out: calculated EC50, OR5AN1 (converted)

SMILES | activation of OR5A2 (OR5A2_variant 1), concentration-response (OR5A2_variant 1) | EC50 (OR5A2_variant 1; [1]) [µM] | activation of OR5A2_variant 2 (P172L), concentration-response (OR5A2_variant 2) | EC50 (OR5AN1; [2]) [µM] | EC50 (OR5A2_variant 1) [µM] | EC50 (OR5AN1) [µM]
O=C1CCC/C=C\CCCCCCCCCC1 [Velvione] | shows dose response curves | 28.8 | not activated | 49 |  | 
CC(=O)c1c(C)c([N+](=O)[O-])c(C(C)(C)C)c([N+](=O)[O-])c1C [Musk Ketone, 4-tert-butyl-2,6-dimethyl-3,5-dinitroacetophenone] | shows dose response curves | 107 | not activated | 0.288 |  | 
Cc1c([N+](=O)[O-])c(C)c([N+](=O)[O-])c(C(C)(C)C)c1[N+](=O)[O-] [Musk Xylene, 1-tert-butyl-3,5-dimethyl-2,4,6-trinitrobenzene] | shows dose response curves |  | not activated |  | 1.86 | 0.661
